The text below walks through data of patent publication US20220378821A1, “METHODS OF TREATING BRAF-MUTATED CANCER CELLS” (EFFECTOR THERAPEUTICS, INC., priority 2019, published 2022).

In data set [1] the test system is COLO 205 xenografts (BRAF mutant). Nature of the data set: In vivo tumor growth inhibition, COLO 205 xenografts. Conditions: for tumor growth inhibition (TGI): COLO 205 xenografts. The method, then:
To test whether eIF4E inhibition affected the growth of BRAF mutant tumors in vivo, COLO 205 cells were grown as tumor xenografts in athymic nude mice and animals were dosed daily with vehicle or Compound Y, having the following structure
(§1) Athymic nude mice were purchased from Simonsen Laboratories (Gilroy, Calif.). C.B-17 SCID mice were purchased from Charles River (Hollister, Calif.). All animal studies were carried out in accordance with the guidelines established by the Institutional Animal Care and Use Committee at Explora BioLabs (San Diego, Calif.). COLO 205 and RKO cells were purchased from ATCC (Manassas, Va.). COLO 205 cells were maintained in RPMI-1640 supplemented with 10% fetal bovine serum. RKO cells were maintained in DMEM supplemented with 10% fetal bovine serum. For COLO 205 xenograft studies, COLO 205 (2×10^6) cells were implanted subcutaneously into athymic nude mice. On day 8 post-implant, tumors were measured (˜103 mm^3) and tumor-bearing animals were randomized into treatment groups. For RKO xenograft studies, RKO cells (5×10^6) were implanted subcutaneously into C.B-17 SCID mice. On day 11 post-implant, tumors were measured (˜153 mm^3) and tumor-bearing animals were randomized into treatment groups. Animals were dosed orally with vehicle or Compound Y daily. Tumor size and body weight were monitored during the course of the study. Tumor size was measured in length and width with a caliper 2× per week. The tumor volume was calculated by the formula L×W×W/2 according to NCI standards.

In data set [2] the test system is RKO xenografts (BRAF mutant). The data set is described as follows: In vivo tumor growth inhibition, RKO xenografts. The method, then: as §1
Data set [3] deals with panel of 100 tumor cell lines. The data set is described as follows: OncoPanel apoptosis profiling (activated caspase-3). In kind it is cell-based. The method, then: (§2) In order to assess cellular phenotypes arising from eIF4E inhibition, Compound X was profiled in a panel of 100 tumor cell lines. Compound X was profiled using the OncoPanel Cell-Based Profiling Service (Eurofins Pharma Discovery Services, St. Charles, Mo.). Briefly, cell lines used in the panel were grown in RPMI 1640, 10% FBS, 2 mM L-alanyl-L-glutamine, 1 mM Na pyruvate, or a special medium. Cells were seeded into 384-well plates and incubated in a humidified atmosphere of 5% CO2 at 37° C. Compounds were added the day following cell seeding. At the same time, a time zero untreated cell plate was generated. After a 3-day incubation period, cells were fixed and stained with fluorescently-labeled antibodies and nuclear dye to allow imaging of nuclei, apoptotic cells and mitotic cells.
(§3) was serially diluted in half-log steps from 10 μM and assayed over 10 concentrations with a maximum assay concentration of 0.1% DMSO. Automated fluorescence microscopy was carried out using a Molecular Devices ImageXpress Micro XL high-content imager, and images were collected with a 4× objective. 16-bit TIFF images were acquired and analyzed with MetaXpress 5.1.0.41 software.
An antibody to activated caspase-3 was used to label cells from early to late stage apoptosis (Thornberry et al., 1998, Science 281:1312-1316). […] A 5-fold induction in the caspase-3 signal was scored as a significant apoptosis induction.

Data set [4] concerns panel of 100 tumor cell lines. Nature of the data set: OncoPanel cell proliferation profiling (nuclear dye relative cell count). In kind it is cell-based. The following applies: for IC50: across the panel of 100 cell lines. On the procedure:
as §2, §3
Cell proliferation was measured by the fluorescence intensity of an incorporated nuclear dye. The output is referred to as the relative cell count, where the measured nuclear intensity is transformed to percent of control (POC) using the following formula: […]
where Ix the nuclear intensity at concentration x, and I0 is the average nuclear intensity of the untreated vehicle wells.
Cellular response parameters were calculated using nonlinear regression to a sigmoidal single-site dose response model:
where y is a response measured at concentration x, A and B are the lower and upper limits of the response, C is the concentration at the response midpoint (EC50), and D is the Hill Slope (Fallahi-Sichani et al., 2013, Nat. Chem. Biol. 9:708-714).
Cell count IC50 is the test compound concentration at 50% of maximal possible response.

Like-named read-outs stand apart in the source and are kept apart here.

For the molecule `Cc1cc(-c2cc(Cl)ccc2OCCn2c(C)nc3cc(C(F)(F)F)c(N4CCN(C)CC4)c(C#N)c3c2=O)c2scc(C(=O)O)c2n1` [Compound Y], the “tolerability (body weight)” value in data set [1] (COLO 205 study, no significant changes in body weight) was “well tolerated”; in data set [2] (RKO study, no significant changes in body weight), “well tolerated”. The “tumor growth inhibition (TGI)” value in data set [1] (3 mg/kg orally daily) came out at 49%; in data set [1] (30 mg/kg orally daily) it was 89%; in data set [2] (RKO xenografts, 30 mg/kg orally daily), 54%.

Turning to `Cc1cc(-c2cc(Cl)ccc2OCCn2c(C)nc3cc(C(F)(F)F)c(CN4CCN(C)CC4)c(C#N)c3c2=O)c2scc(C(=O)O)c2n1` [Compound X], the “BRAF mutant cell lines among those with significant induction of apoptosis” value in data set [3] (of the 36 cell lines with >5-fold activated caspase-3) amounted to 10. For the same molecule, the “cell lines that showed significant induction of apoptosis (>5-fold induction of activated caspase-3)” value in data set [3] (of the panel of 100 cell lines) stood at 36. For the same molecule, the IC50 is 116 nM in data set [4] (72 h, 3-day incubation, read-out: median IC50 value for cell proliferation) and 12 to 10000 nM in data set [4] (upper end printed as >10,000 nM, read-out: distribution of IC50 values for cell proliferation). In data set [4] (hematological, head and neck, NSCLC, melanoma, uterine and pancreatic tumor cell lines), the “cell lines tested with IC50 values below the median” value is over 74%.
